Results published in article PMC8197367, “Comparative Antimicrobial Activity of Hp404 Peptide and Its Analogs against Acinetobacter baumannii” (International Journal of Molecular Sciences, 2021).
Values after ≈ are worked out from the molar mass of the structure shown.

What was measured:
A. baumannii KCTC 2508 = experiment: Biofilm inhibition, crystal violet assay; assay type: cell-based, Acinetobacter baumannii; conditions: NB with 0.2% glucose, 24 h, 37 °C, 595 nm, highest concentration 25 μM
Method: (§1) Acinetobacter baumannii KCTC 2508, #3, #4, 409081 and 719705 were incubated overnight at 37°C to mid-log phase in NB medium. Bacterial cells (5 × 10^5 CFU/mL) were suspended in NB containing 0.2% glucose. A final concentration of 25 μM of peptides and antibiotics (meropenem and polymyxin B) was prepared with the bacterial suspensions in 96-well tissue culture plates and incubated at 37 °C for 24 h. The culture media was carefully removed, and biofilms were fixed with 100% methanol for 15 min and then stained with 0.1% crystal violet for 1 h and rinsed three times with distilled water. After air-drying, the biofilm mass was dissolved in 100 μL of 95% ethanol and measured at 595 nm using a microplate reader.

A. baumannii #3 [1] = experiment: Biofilm inhibition, crystal violet assay; assay type: cell-based, Acinetobacter baumannii; conditions: NB with 0.2% glucose, 24 h, 37 °C, 595 nm, highest concentration 25 μM
Method: as §1

A. baumannii 409081 [2] = experiment: Biofilm inhibition, crystal violet assay; assay type: cell-based, Acinetobacter baumannii; conditions: NB with 0.2% glucose, 24 h, 37 °C, 595 nm, highest concentration 25 μM
Method: as §1

A. baumannii #2 = experiment: microbe, parasite or virus in culture; conditions: 18 h
Source text: (§2) Staphylococcus aureus ATCC 25923, S. aureus ATCC 29213, P. aeruginosa ATCC 27853, Escherichia coli ATCC 25922 and Salmonella typhimurium ATCC 14028 strains were obtained from the American Type Culture Collection (ATCC, Manassas, VA, USA). Listeria monocytogenes KCTC 3710, Bacillus cereus KCTC 1012, K. pneumoniae KCTC 2208 and A. baumannii KCTC 2508 were obtained from the Korean Collection for Type Cultures (KRIBB, Daejeon, South Korea). Clinical isolates of A. baumannii strains were collected from Eulji University Hospital (Seoul, South Korea).
(§3) Hp1404 and its analog peptides activity against both gram-positive and gram-negative bacterial strains were tested using the broth microdilution method. Briefly, S. aureus (ATCC 25923, ATCC 29213) and B. cereus KCTC 1012 were cultured overnight at 37 °C in tryptic soy broth (TSB). P. aeruginosa ATCC 27853, K. pneumoniae KCTC 2208, A. baumannii KCTC 2508 and S. typhimurium ATCC 14028 were cultured overnight at 37 °C in nutrient broth (NB). E. coli ATCC 25922 was cultured overnight at 37 °C in luria bertani (LB). L. monocytogenes KCTC 3710 was cultured overnight at 37 °C in brain heart infusion (BHI). The cultures were diluted with fresh medium at a density of 2 × 10^5 CFU/mL. Peptides were serially diluted in sodium phosphate buffer (pH 7.2) to a final concentration of 25 μM. In a 96-well plate, 50-μL bacterial aliquots were mixed with 50 μL peptide solution. After incubation at 37 °C for 18 h, the MIC was determined using a plate reader at 600 nm. The experiment was performed in triplicate.

A. baumannii 907233 = experiment: microbe, parasite or virus in culture
Source text: as §2, §3

A. baumannii #3 [3] = experiment: microbe, parasite or virus in culture; conditions: 18 h
Source text: as §2, §3

A. baumannii #4 = experiment: microbe, parasite or virus in culture; conditions: 18 h
Source text: as §2, §3

A. baumannii 719705 [4] = experiment: microbe, parasite or virus in culture
Source text: as §2, §3

A. baumannii 409081 [5] = experiment: microbe, parasite or virus in culture
Source text: as §2, §3

A. baumannii biofilms = experiment: Live biofilm viability assay, SYTO 9 imaging; assay type: cell-based, Acinetobacter baumannii; conditions: preformed biofilm treated with 50 μM for 24 h; A. baumannii including strains isolated from patients; EVOS FL Auto 2
Method: An A. baumannii biofilm viability assay was performed by staining with Syto9 dye. Acinetobacter baumannii strains were diluted to approximately 5 × 10^5 CFU/mL and incubated for 24 h. Biofilms of A. baumannii strains were washed with PBS and treated with 25 and 50 μM peptides and antibiotics for 24 h. Biofilms were stained with SYTO 9 diluted in PBS and the biofilm was visualized using an EVOS™ FL Auto 2 Imaging System (Thermo Fisher Scientific, Waltham, MA, USA).

A. baumannii 719705 [6] = experiment: Biofilm inhibition, crystal violet assay; assay type: cell-based, Acinetobacter baumannii; conditions: NB with 0.2% glucose, 24 h, 37 °C, 595 nm, highest concentration 25 μM
Method: as §1

Compound | concentration that inhibited biofilm formation (A. baumannii KCTC 2508) | concentration that inhibited biofilm formation (A. baumannii #3 [1]) | concentration that inhibited biofilm formation (A. baumannii 409081 [2]) | MIC (A. baumannii #2; Acinetobacter baumannii) | MIC (A. baumannii 907233; Acinetobacter baumannii, 907233, 18 h) | MIC (A. baumannii #3 [3]; Acinetobacter baumannii) | MIC (A. baumannii #4; Acinetobacter baumannii) | MIC (A. baumannii 719705 [4]; Acinetobacter baumannii, 719705, 18 h) | MIC (A. baumannii 409081 [5]; Acinetobacter baumannii, 409081, 18 h) | biofilm reduction by SYTO 9 fluorescence imaging (A. baumannii biofilms) | concentration that inhibited biofilm formation (A. baumannii 719705 [6]) | MIC (A. baumannii #2; A. baumannii #2 isolated from patient, broth microdilution, 37 °C, three independent experiments) | MIC (A. baumannii 907233; A. baumannii 907233 isolated from patient, broth microdilution, 37 °C, 18 h, three independent experiments) | MIC (A. baumannii #3 [3]; A. baumannii #3 isolated from patient, broth microdilution, 37 °C, three independent experiments) | MIC (A. baumannii #4; A. baumannii #4 isolated from patient, broth microdilution, 37 °C, three independent experiments) | MIC (A. baumannii 719705 [4]; A. baumannii 719705 isolated from patient, broth microdilution, 37 °C, 18 h, three independent experiments) | MIC (A. baumannii 409081 [5]; A. baumannii 409081 isolated from patient, broth microdilution, 37 °C, 18 h, three independent experiments)
C[C@@H](O)[C@H]1C(=O)N2C(C(=O)O)=C(S[C@@H]3CN[C@H](C(=O)N(C)C)C3)[C@H](C)[C@H]12 [Meropenem, meropenem, reference compound] | 6.25 µM | ≥ 25 µM | ≥ 25 µM | 100 µM (≈ 38.3 µg/mL) | 200 µM (≈ 76.7 µg/mL) | 50 µM (≈ 19.2 µg/mL) | 100 µM (≈ 38.3 µg/mL) | 100 µM (≈ 38.3 µg/mL) | 200 µM (≈ 76.7 µg/mL) | did not decrease biofilm formation | – | – | – | – | – | – | –
polymyxin B [reference compound] | 6.25 µM | 6.25 µM | 6.25 µM | – | – | – | – | – | – | did not decrease biofilm formation | 6.25 µM | 0.39 µM | 0.78 µM | 0.78 µM | 0.39 µM | 0.78 µM | 0.78 µM
